Source: patent publication US20230212180A1, “SUBSTITUTED PYRAZINE COMPOUND, PHARMACEUTICAL COMPOSITION COMPRISING SAME, AND USE THEREOF” (Sichuan Kelun-Biotech Biopharmaceutical Co., Ltd., priority 2020, published 2023)

Test: Pharmacokinetic (PK) studies in SD rat
Format: in vivo
Experimental: Test Example 6: Pharmacokinetic (PK) Studies in SD Rat
The compound of Example 12 and Control Compound 2 were administered to male SD rats by intravenous injection (IV) and gavage (PO) respectively to estimate the pharmacokinetic properties. Dosing amounts for IV and PO routes were 1 mg/kg and 5 mg/kg, respectively. The solvent for IV route was 5% DMSO+5% Solutol (polyoxyl 15-hydroxystearate)+90% Saline (physiological saline), and the solvent for PO route was 0.5% MC (sodium methylcellulose). Blood was collected at various time points after IV and PO administration. The blood was anticoagulated using EDTA.K2, and centrifuged to obtain plasma samples. The plasma samples were preserved at −80° C.
The plasma samples were subjected to protein precipitation and then to the LC-MS/MS analysis. WinNonlin 6.3 software was used to calculate the pharmacokinetic parameters by non-compartmental model, and the results were listed in Table 6 below.

[1] = rat, in vivo, male SD rats, IV, 1 mg/kg, plasma
[2] = rat, in vivo, male SD rats, PO, 5 mg/kg, plasma

With C[C@@H]1OCC2(CCN(c3ncc(Sc4ccnc(N5CC(C(C)(C)O)C5)c4Cl)nc3CO)CC2)[C@@H]1N [Example 12, 2-(1-(4-(5-((3S,4S)-4-amino-3-methyl-2-oxa-8-azaspiro[4.5]decan-8-yl)-6-(hydroxymethyl)pyrazin-2-ylthio)-3-chloropyridin-2-yl)azetidin-3-yl)propan-2-ol] as the compound, how does the “pharmacokinetic properties (in words)” value (SD rat, 1 mg/kg by injection and 5 mg/kg by mouth) read?
The value was “excellent pharmacokinetic properties”.

And the AUC(0-t) [1]?
The AUC(0-t) was 1690 ng·h/mL.

What about the Cmax [1] of the same compound?
The Cmax was 373 ng/mL.

What about the clearance [1] of the same compound?
The clearance was 9.8 mL/min/kg.

And the AUC(0-t) [2]?
The AUC(0-t) was 9680 ng·h/mL.

And the Cmax [2]?
Its Cmax is 1110 ng/mL.
